Source: PubChem BioAssay AID1259407 (Chemical Carcinogenesis Research Information System (CCRIS), 2018)
The source made the active and inactive calls. How the calls were made is not given here.

System: CCRIS mutagenicity, Ames/micronucleus/aberration tests
Assay: CCRIS mutagenicity studies
[1] = Test System: AMES SALMONELLA TYPHIMURIUM, Strain/Indicator: TA98, Metabolic Activation: NONE, Method: PREINCUBATION
[2] = Test System: AMES SALMONELLA TYPHIMURIUM, Strain/Indicator: TA100, Metabolic Activation: NONE, Method: PREINCUBATION

Question: How did the mutagenic call (Test System: AMES SALMONELLA TYPHIMURIUM, Strain/Indicator: TA97, Metabolic Activation: HAMSTER, LIVER, S-9, AROCLOR 1254 (10%), Method: PREINCUBATION) turn out when `CCCCOCCOCCSC#N` was run?
Answer: inactive; negative

Question: What about the mutagenic call (Test System: AMES SALMONELLA TYPHIMURIUM, Strain/Indicator: TA97, Metabolic Activation: HAMSTER, LIVER, S-9, AROCLOR 1254 (30%), Method: PREINCUBATION) of the same compound?
Answer: inactive; negative

Question: And the mutagenic call (Test System: AMES SALMONELLA TYPHIMURIUM, Strain/Indicator: TA97, Metabolic Activation: NONE, Method: PREINCUBATION)?
Answer: inactive; negative

Question: What about the mutagenic call (Test System: AMES SALMONELLA TYPHIMURIUM, Strain/Indicator: TA97, Metabolic Activation: RAT, LIVER, S-9, AROCLOR 1254 (10%), Method: PREINCUBATION) of the same compound?
Answer: inactive; negative

Question: What about the mutagenic call (Test System: AMES SALMONELLA TYPHIMURIUM, Strain/Indicator: TA97, Metabolic Activation: RAT, LIVER, S-9, AROCLOR 1254 (30%), Method: PREINCUBATION) of the same compound?
Answer: inactive; negative

Question: What about the mutagenic call (Test System: AMES SALMONELLA TYPHIMURIUM, Strain/Indicator: TA98, Metabolic Activation: HAMSTER, LIVER, S-9, AROCLOR 1254 (10%), Method: PREINCUBATION) of the same compound?
Answer: inactive; negative

Question: And the mutagenic call (Test System: AMES SALMONELLA TYPHIMURIUM, Strain/Indicator: TA98, Metabolic Activation: HAMSTER, LIVER, S-9, AROCLOR 1254 (30%), Method: PREINCUBATION)?
Answer: inactive; negative

Question: What about the mutagenic call [1] of the same compound?
Answer: inactive; negative

Question: What about the mutagenic call (Test System: AMES SALMONELLA TYPHIMURIUM, Strain/Indicator: TA98, Metabolic Activation: RAT, LIVER, S-9, AROCLOR 1254 (10%), Method: PREINCUBATION) of the same compound?
Answer: inactive; negative

Question: And the mutagenic call (Test System: AMES SALMONELLA TYPHIMURIUM, Strain/Indicator: TA98, Metabolic Activation: RAT, LIVER, S-9, AROCLOR 1254 (30%), Method: PREINCUBATION)?
Answer: inactive; negative

Question: What about the mutagenic call (Test System: AMES SALMONELLA TYPHIMURIUM, Strain/Indicator: TA100, Metabolic Activation: HAMSTER, LIVER, S-9, AROCLOR 1254 (10%), Method: PREINCUBATION) of the same compound?
Answer: inactive; negative

Question: And the mutagenic call (Test System: AMES SALMONELLA TYPHIMURIUM, Strain/Indicator: TA100, Metabolic Activation: HAMSTER, LIVER, S-9, AROCLOR 1254 (30%), Method: PREINCUBATION)?
Answer: inactive; negative

Question: And the mutagenic call [2]?
Answer: inactive; negative

Question: What about the mutagenic call (Test System: AMES SALMONELLA TYPHIMURIUM, Strain/Indicator: TA100, Metabolic Activation: RAT, LIVER, S-9, AROCLOR 1254 (10%), Method: PREINCUBATION) of the same compound?
Answer: inactive; negative

Question: And the mutagenic call (Test System: AMES SALMONELLA TYPHIMURIUM, Strain/Indicator: TA100, Metabolic Activation: RAT, LIVER, S-9, AROCLOR 1254 (30%), Method: PREINCUBATION)?
Answer: inactive; negative

Question: And the mutagenic call (Test System: AMES SALMONELLA TYPHIMURIUM, Strain/Indicator: TA1535, Metabolic Activation: HAMSTER, LIVER, S-9, AROCLOR 1254 (10%), Method: PREINCUBATION)?
Answer: inactive; negative

Question: What about the mutagenic call (Test System: AMES SALMONELLA TYPHIMURIUM, Strain/Indicator: TA1535, Metabolic Activation: HAMSTER, LIVER, S-9, AROCLOR 1254 (30%), Method: PREINCUBATION) of the same compound?
Answer: inactive; negative

Question: What about the mutagenic call (Test System: AMES SALMONELLA TYPHIMURIUM, Strain/Indicator: TA1535, Metabolic Activation: NONE, Method: PREINCUBATION) of the same compound?
Answer: inactive; negative

Question: And the mutagenic call (Test System: AMES SALMONELLA TYPHIMURIUM, Strain/Indicator: TA1535, Metabolic Activation: RAT, LIVER, S-9, AROCLOR 1254 (10%), Method: PREINCUBATION)?
Answer: inactive; negative

Question: And the mutagenic call (Test System: AMES SALMONELLA TYPHIMURIUM, Strain/Indicator: TA1535, Metabolic Activation: RAT, LIVER, S-9, AROCLOR 1254 (30%), Method: PREINCUBATION)?
Answer: inactive; negative

Question: What about the mutagenic call (Test System: AMES SALMONELLA TYPHIMURIUM, Strain/Indicator: TA1537, Metabolic Activation: HAMSTER, LIVER, S-9, AROCLOR 1254 (30%), Method: PREINCUBATION) of the same compound?
Answer: inactive; negative

Question: What about the mutagenic call (Test System: AMES SALMONELLA TYPHIMURIUM, Strain/Indicator: TA1537, Metabolic Activation: NONE, Method: PREINCUBATION) of the same compound?
Answer: inactive; negative

Question: And the mutagenic call (Test System: AMES SALMONELLA TYPHIMURIUM, Strain/Indicator: TA1537, Metabolic Activation: RAT, LIVER, S-9, AROCLOR 1254 (30%), Method: PREINCUBATION)?
Answer: inactive; negative

Question: For `CN(C)CCNC(=O)c1cc2ccccc2c2cccnc12`, which mutagenic call (Test System: AMES SALMONELLA TYPHIMURIUM, Strain/Indicator: TA1537, Metabolic Activation: NONE, Method: STANDARD PLATE) is on record?
Answer: active; positive

Question: What does the source list for `CC(Br)C(N)=O` (centres undefined)?
Answer: mutagenic call (Test System: AMES SALMONELLA TYPHIMURIUM, Strain/Indicator: TA100, Metabolic Activation: MOUSE, LIVER, S-9, AROCLOR 1254, Method: STANDARD PLATE): active; positive; mutagenic call (Test System: AMES SALMONELLA TYPHIMURIUM, Strain/Indicator: TA100, Metabolic Activation: NONE, Method: STANDARD PLATE): active; positive

Question: `CC12OOC1(C)c1ccc3cccnc3c1O2` (centres undefined) was tested. Which mutagenic call [2] did it give?
Answer: inactive; negative

Question: `C[C@H](CCC(=O)O)[C@H]1CC[C@H]2[C@@H]3CC[C@@H]4C[C@H](O)CC[C@]4(C)[C@H]3C[C@@H](O)[C@]12C` was tested. Which mutagenic call (Test System: AMES SALMONELLA TYPHIMURIUM, Strain/Indicator: TA98, Metabolic Activation: NONE, Method: FLUCTUATION TEST) did it give?
Answer: inactive; negative

Question: What about the mutagenic call [1] of the same compound?
Answer: inactive; negative

Question: What about the mutagenic call (Test System: AMES SALMONELLA TYPHIMURIUM, Strain/Indicator: TA98, Metabolic Activation: RAT, LIVER, S-9, PCB, Method: PREINCUBATION) of the same compound?
Answer: inactive; negative

Question: And the mutagenic call (Test System: AMES SALMONELLA TYPHIMURIUM, Strain/Indicator: TA100, Metabolic Activation: NONE, Method: FLUCTUATION TEST)?
Answer: inactive; negative

Question: How did the mutagenic call (Test System: Ames Salmonella typhimurium, Strain/Indicator: TA97, Metabolic Activation: None, Method: Plate incorporation) turn out when `CCOC(=O)NCCOc1ccc(Oc2ccccc2)cc1` was run?
Answer: inactive; negative

Question: And the mutagenic call (Test System: Ames Salmonella typhimurium, Strain/Indicator: TA97, Metabolic Activation: None, Method: Preincubation)?
Answer: inactive; negative

Question: And the mutagenic call (Test System: Ames Salmonella typhimurium, Strain/Indicator: TA97, Metabolic Activation: Rat, Liver, S-9, Phenobarbital and beta-naphthoflavone, Method: Plate incorporation)?
Answer: inactive; negative

Question: What about the mutagenic call (Test System: Ames Salmonella typhimurium, Strain/Indicator: TA97, Metabolic Activation: Rat, Liver, S-9, Phenobarbital and beta-naphthoflavone, Method: Preincubation) of the same compound?
Answer: inactive; negative

Question: What about the mutagenic call (Test System: Ames Salmonella typhimurium, Strain/Indicator: TA98, Metabolic Activation: None, Method: Plate incorporation) of the same compound?
Answer: inactive; negative

Question: What about the mutagenic call (Test System: Ames Salmonella typhimurium, Strain/Indicator: TA98, Metabolic Activation: None, Method: Preincubation) of the same compound?
Answer: inactive; negative

Question: And the mutagenic call (Test System: Ames Salmonella typhimurium, Strain/Indicator: TA98, Metabolic Activation: Rat, Liver, S-9, Phenobarbital and beta-naphthoflavone, Method: Plate incorporation)?
Answer: inactive; negative

Question: And the mutagenic call (Test System: Ames Salmonella typhimurium, Strain/Indicator: TA98, Metabolic Activation: Rat, Liver, S-9, Phenobarbital and beta-naphthoflavone, Method: Preincubation)?
Answer: inactive; negative

Question: What about the mutagenic call (Test System: Ames Salmonella typhimurium, Strain/Indicator: TA100, Metabolic Activation: None, Method: Plate incorporation) of the same compound?
Answer: inactive; negative

Question: What about the mutagenic call (Test System: Ames Salmonella typhimurium, Strain/Indicator: TA100, Metabolic Activation: None, Method: Preincubation) of the same compound?
Answer: inactive; negative

Question: And the mutagenic call (Test System: Ames Salmonella typhimurium, Strain/Indicator: TA100, Metabolic Activation: Rat, Liver, S-9, Phenobarbital and beta-naphthoflavone, Method: Plate incorporation)?
Answer: inactive; negative

Question: What about the mutagenic call (Test System: Ames Salmonella typhimurium, Strain/Indicator: TA100, Metabolic Activation: Rat, Liver, S-9, Phenobarbital and beta-naphthoflavone, Method: Preincubation) of the same compound?
Answer: inactive; negative

Question: What about the mutagenic call (Test System: Ames Salmonella typhimurium, Strain/Indicator: TA102, Metabolic Activation: None, Method: Plate incorporation) of the same compound?
Answer: inactive; negative

Question: What about the mutagenic call (Test System: Ames Salmonella typhimurium, Strain/Indicator: TA102, Metabolic Activation: None, Method: Preincubation) of the same compound?
Answer: inactive; negative

Question: What about the mutagenic call (Test System: Ames Salmonella typhimurium, Strain/Indicator: TA102, Metabolic Activation: Rat, Liver, S-9, Phenobarbital and beta-naphthoflavone, Method: Plate incorporation) of the same compound?
Answer: inactive; negative

Question: What about the mutagenic call (Test System: Ames Salmonella typhimurium, Strain/Indicator: TA102, Metabolic Activation: Rat, Liver, S-9, Phenobarbital and beta-naphthoflavone, Method: Preincubation) of the same compound?
Answer: inactive; negative

Question: What about the mutagenic call (Test System: Ames Salmonella typhimurium, Strain/Indicator: TA1535, Metabolic Activation: None, Method: Plate incorporation) of the same compound?
Answer: inactive; negative

Question: And the mutagenic call (Test System: Ames Salmonella typhimurium, Strain/Indicator: TA1535, Metabolic Activation: None, Method: Preincubation)?
Answer: inactive; negative

Question: And the mutagenic call (Test System: Ames Salmonella typhimurium, Strain/Indicator: TA1535, Metabolic Activation: Rat, Liver, S-9, Phenobarbital and beta-naphthoflavone, Method: Plate incorporation)?
Answer: inactive; negative

Question: And the mutagenic call (Test System: Ames Salmonella typhimurium, Strain/Indicator: TA1535, Metabolic Activation: Rat, Liver, S-9, Phenobarbital and beta-naphthoflavone, Method: Preincubation)?
Answer: inactive; negative

Question: What about the mutagenic call (Test System: Ames Salmonella typhimurium, Strain/Indicator: TA1537, Metabolic Activation: None, Method: Plate incorporation) of the same compound?
Answer: inactive; negative

Question: What about the mutagenic call (Test System: Ames Salmonella typhimurium, Strain/Indicator: TA1537, Metabolic Activation: None, Method: Preincubation) of the same compound?
Answer: inactive; negative

Question: And the mutagenic call (Test System: Ames Salmonella typhimurium, Strain/Indicator: TA1537, Metabolic Activation: Rat, Liver, S-9, Phenobarbital and beta-naphthoflavone, Method: Plate incorporation)?
Answer: inactive; negative

Question: And the mutagenic call (Test System: Ames Salmonella typhimurium, Strain/Indicator: TA1537, Metabolic Activation: Rat, Liver, S-9, Phenobarbital and beta-naphthoflavone, Method: Preincubation)?
Answer: inactive; negative

Question: What about the mutagenic call (Test System: Ames Salmonella typhimurium, Strain/Indicator: TA1538, Metabolic Activation: None, Method: Plate incorporation) of the same compound?
Answer: inactive; negative

Question: And the mutagenic call (Test System: Ames Salmonella typhimurium, Strain/Indicator: TA1538, Metabolic Activation: None, Method: Preincubation)?
Answer: inactive; negative

Question: What about the mutagenic call (Test System: Ames Salmonella typhimurium, Strain/Indicator: TA1538, Metabolic Activation: Rat, Liver, S-9, Phenobarbital and beta-naphthoflavone, Method: Plate incorporation) of the same compound?
Answer: inactive; negative

Question: And the mutagenic call (Test System: Ames Salmonella typhimurium, Strain/Indicator: TA1538, Metabolic Activation: Rat, Liver, S-9, Phenobarbital and beta-naphthoflavone, Method: Preincubation)?
Answer: inactive; negative
